Entries after “also recorded” stand apart in the source; their conditions may differ.

For one experiment, the system named is hepatic VLDL secretion. In words: Lipoprotein (VLDL) secretion studies with tyloxapol; NMR particle size. It counts as in vivo, rat. How it is done:
Lipoproteins secretion and particles concentration and size measurements. Tyloxapol (600 mg/kg; ˜1 min) was intravenously injected to inhibit endogenous lipoprotein lipase. This high dose of tyloxapol ensured complete inhibition of triglyceride clearance during VLDL secretion studies. Plasma samples were taken every 30 min for triglycerides analysis and for lipoprotein profiling. Plasma VLDL particles concentration and size were determined by nuclear magnetic resonance spectroscopy (lipoprofile-II test) at Liposcience as previously described (Otvos et al., 1991; 1992). This NMR lipoprofile-II test is based on the assumption that each plasma lipoprotein particle of a particular size gives its own characteristic lipid NMR signal. The intensity of the signal is also in proportion to the concentration of the particle. The diameter range for large, medium and small VLDL is >60 nm, 35-60 nm, and 27-35 nm, respectively.
Selective hepatic branch vagotomy. The surgeries were performed as described (Lam et al., 2005c).
(§1) Treatment with SCD1 ASO. Five and two days before the lipoprotein secretion studies, rats received a single intra-peritoneal injection of either SCD1 or scrambled (SCR) ASO (100 mg/kg of body weight). […] In a separate set of studies, rats received intra-portal injection of either SCD1 or SCR ASO (40 mg/kg of body weight) (Gutierrez-Juarez et al., 2006) three days before the lipoprotein secretion studies.
Portal oleate infusion. Chronic portal catheter was implanted and 7 days were allowed for rat recovery. Oleic acid (45 mM; dissolved in 45% HBP) was infused at a rate of 40 μl/h for 2.5 h (1 h before the 90 min lipoprotein secretion studies). This dose enabled the reconstitution of hepatic oleyl-CoA levels back to normal during portal SCD1 ASO (FIG. 11c) or ICV glucose studies (FIG. 11d).

Experiment [1] concerns Stearoyl-CoA Desaturase 1 (SCD1). Nature of the experiment: Liver SCD1 activity, SCD1 mRNA and LCFA-CoA measurements. The experiment is classed as in vivo, rat. How it is done:
as §1
Liver LCFA-CoA measurements. The liver was sampled and the LCFA-CoAs were extracted from the liver and measured by high-performance liquid chromatography (HPLC) as previously described (Lam et al., 2005c).
Stearoyl-CoA Desaturase 1 (SCD1) activity. CD1 activity assays were performed essentially as described (Cohen et al., 2002) using 1-[^14C]-stearoyl-CoA as a substrate. At the end of the reaction incubation long-chain acyl CoAs (LC Acyl-CoAs) were extracted and fractionated by reverse-phase HPLC as previously reported (Lam et al., 2005c). Chromatographically resolved stearoyl CoA (C18:0) and oleyl-CoA (C18:1) peaks were collected and counted in a β-scintillation counter. Protein was assayed by the bicinchoninic acid (BCA) method using a commercially available kit (Pierce Biotechnology, Rockford, Ill.) according to the manufacturer's instructions.
Gene expression. Stearoyl-CoA Desaturasel (SCD1) mRNA was measured by quantitative real-time PCR. Briefly, total RNA was extracted from either liver or fat tissue using the Trizol reagent (Invitrogen, Carlsbad, Calif.) according to the manufacturer instructions. cDNA was then synthesized from 2 μg of total RNA using the Superscript® III First-Strand kit TM? (Invitrogen, Carlsbad, Calif.). Samples of RNA in which the reverse transcriptase was omitted (no RT controls) were also included. The cDNA and no RT controls were diluted 1:20 with PCR grade water and 2 μl from each sample was used for PCR in a total volume of 20 μl. The FastStart DNA Master SYBR Green I kit (Roche Applied Science, Indianapolis, Ind.) and a LightCycler® 2 instrument (Roche Applied Science, Indianapolis, Ind.) were used in all experiments. Either 18S mRNA expression was routinely measured for normalization purposes. The primer sequences used were as follows: 5′-[…]-3′ and 5′-[…]-3′ for Scd1; and 5′-[…]-3′ and 5′-[…]-3′ for ribosomal 18S. The mRNA copy number was calculated from standard curves obtained using cloned target templates (plasmid DNA) of known copy number for each gene of interest.

For experiment [2], the system named is conscious rats. Nature of the experiment: ICV glucose or lactate infusion with pancreatic basal insulin clamp: plasma glucose and liver glucose production. It counts as in vivo, rat. Conditions: for effect of ICV co-infused LDH inhibitor or KATP blocker on the effects of ICV glucose or lactate on plasma glucose and GP: ICV co-infusion. The text has this: We hypothesize that the hypothalamic sensing of glucose-derived pyruvate is a novel regulator of endogenous glucose production (GP). […] We propose that an increase in neuronal pyruvate levels is a hypothalamic signal of nutrient availability.
Long chain fatty acids in the brain decrease glucose production (GP) by the liver via activation of hypothalamus ATP-sensitive (KATP) channels. Here we tested whether (A) direct administration of glucose in the third cerebral ventricle can alter glucose production by the liver, and (B) whether this effect requires its metabolism in the TCA cycle.

A further experiment relates to male Sprague-Dawley rats. Nature of the experiment: ICV infusion: plasma triglycerides and metabolites under basal and pancreatic clamp conditions. It counts as in vivo, rat. The text has this: Animal preparation. We studied 10-week-old male Sprague-Dawley rats. Rats underwent stereotaxic surgery to indwell single catheters in the third cerebral ventricle {intracerebroventricular (ICV)(Obici et al., 2001) or bilateral catheters into the mediobasal hypothalamus (Lam et al., 2005c). One week later, we placed indwelling catheters in the internal jugular vein and carotid artery for sampling and infusion during the in vivo experiments (Obici et al., 2001). Recovery from surgery was monitored by measuring daily food intake and weight gain for 4-5 days after surgery.
(§2) Infusion protocols. The in vivo infusion experiments lasted a total of 360 min, and the experiments were carried out in rats that had their food removed ˜5 h before the experiments. Thus, at the time of the experiment, the rats are in post-absorptive state since their stomach should be completely emptied by 5 h fasting. […] This ICV glucose protocol physiologically elevate hypothalamic glucose concentration by ˜70% as previously described (Lam et al., 2005b) and is similar to that induced by a doubling of the circulating glucose levels (Lam et al., 2005b). During the ICV infusions, we monitored the plasma metabolite levels under pre-infused (0 min), basal (180-240 min) and pancreatic clamp (300-360 min) conditions. […] A basal insulin-pancreatic clamp was performed in the final 2 h (240-360 min) of the study as previously described (Lam et al., 2005b). In brief, a continuous infusion of insulin (1 mU/kg.min) and somatostatin (3 μg/kg.min) was administered, and a variable infusion of a 25% glucose solution was started and periodically adjusted to clamp and maintain the plasma glucose concentration at ˜8 mM. […] To examine the time-dependent effects of ICY glucose on plasma triglycerides, ICY (5 μl/h) 2 mM D-glucose or mannitol was administrated for 210 min and plasma triglyceride levels were monitored at 0, 20, 60, 120, 180, 210 min. […] Plasma triglycerides were monitored under basal, pancreatic clamp and tyloxapol-treated conditions. At the end of the infusion experiments, rats were anesthetized and tissue samples were freeze-clamped in situ with aluminum tongs pre-cooled in liquid nitrogen. All tissue samples were stored at −80° C. for subsequent analysis.
Biochemical analyses. Plasma glucose concentrations were measured by the glucose oxidase method (Glucose Analyzer II, Beckman Instruments, Inc., Fullerton, Calif.). […] FFA concentrations were determined by an enzyme assay in accordance with the manufacturer's specifications (Waco Pure Chemical Industries. Osaka. Japan). Plasma insulin concentrations (with rat and porcine insulin standards) were measured by radioimmunoassay (RIA). Plasma adiponectin concentrations were measured by RIA (Linco Inc., Austin, Tex., USA). Liver triglycerides were measured as described (Muse et al., 2004).
Calculations. Statistical analysis was done by unpaired Student's t test or analysis of variance as appropriate. Data are presented as means±SEM. All values were collapsed into a single value for each animal prior to the calculation of mean. The time period 180-240 min was averaged for the basal and the time period 300-360 min was averaged for the clamp conditions.

The test system of a further experiment is mediobasal hypothalamus. In words: Intrahypothalamic (IH) infusion of glucose or DCA with pancreatic basal insulin clamp. The conditions noted are these: IH, with glucose. The experiment is classed as in vivo, rat. The source says:
FIG. 3 is a diagram of experimental protocols (Panel (a)) and graphs of results of those experiments utilizing intrahypothalamic (IH) infusions of glucose.
FIG. 4 is a schematic and graphs of experimental results showing the effect of dichloroacetate (DCA), an inhibitor of pyruvate dehydrogenase kinase, having the effect of activating pyruvate dehydrogenase (PDH). The schematic of Panel (a) illustrates the PDH activation effect of DCA in the context of glucose metabolism, the TCA cycle, and nervous system cells.
We have localized the effect of glucose on liver glucose production to the mediobasal hypothalamus. This was accomplished using bilateral intraparenchymal (rather than ICY) delivery of both glucose and the KATP blocker GLI.

In experiment [3] the test system is conscious rats. Nature of the experiment: Circulating lactate infusion with central LDH inhibitor or KATP blocker: glucose kinetics during pancreatic clamps.
Experiment [4] relates to conscious rats. Nature of the experiment: Intravenous lactate infusion with or without MBH oxamate: plasma TG and hepatic TG-VLDL production. It counts as in vivo, rat. Conditions: oxamate within the mediobasal hypothalamus prior to the i.v. lactate infusion. On the procedure: as §2
VLDL are decreased in the hours following an acute bout of exercise. […] To investigate the mechanism by which lactate lowers plasma TG levels, the rate of production of hepatic TG-enriched VLDL was measured.

On to `CCCCCCCC/C=C\CCCCCCCC(=O)O` [oleic acid], for which the “effect of portal oleic acid infusion on VLDL secretion” value with hepatic VLDL secretion (portal infusion during ICV glucose or SCD1 ASO) was “negates the effects of both central glucose and SCD1 deficiency on VLDL secretion; also recorded: sufficient to negate the effect of SCD1 deficiency on VLDL secretion”. The “hepatic oleyl-CoA” value in experiment [1] (portal infusion of oleic acid during ICV glucose or SCD1 deficiency) is on record as “restores hepatic oleyl-CoA to control levels”.

Consider `COc1ccc(Cl)cc1C(=O)NCCc1ccc(S(=O)(=O)NC(=O)NC2CCCCC2)cc1` [glibenclamide, reference compound], for which the “effect of ICV co-infused LDH inhibitor or KATP blocker on the effects of ICV glucose or lactate on plasma glucose and GP” value in the experiment on conscious rats [2] is “inhibited”; with conscious rats [2] (listed as GLI) it was “inhibited”; with conscious rats [2] (listed as sulfonylurea) it was “completely abolished the effects of ICV glucose and lactate on plasma glucose and GP”. Further, the “effect of ICV co-infused inhibitor on the plasma triglyceride-lowering effects of ICV glucose or lactate” value in the experiment on male Sprague-Dawley rats (ICV co-infusion (oxamate 50 mM, glibenclamide 100 μM)) is “negated the effects of both ICV glucose and lactate on plasma triglycerides; also recorded: abolishes the plasma triglyceride-lowering effects of glucose; also recorded: abolished the plasma triglyceride-lowering effects of lactate”. In addition, the “plasma triglyceride levels, inhibitor per se” value with male Sprague-Dawley rats (ICV inhibitor alone) was “did not per se alter the levels of plasma triglycerides”. In the experiment on hepatic VLDL secretion (central co-infusion with glucose), the “effect of central co-infusion of inhibitor on suppression of VLDL-triglyceride secretion by ICV glucose” value is given as “abolished”. Also, in experiment [1] (ICV co-infusion with glucose), the “effect of ICV co-infused inhibitor on the decrease of hepatic SCD1 mRNA and activity by ICV glucose” value is on record as “abolished”. The “effect of KATP blocker on the effects of IH glucose” value in the experiment with mediobasal hypothalamus was “prevented”. In the experiment on conscious rats [3] (ICV inhibitor infused with IV lactate), the “glucose infusion rate to maintain euglycemia” value was “decreased glucose infusion rate”. For the same compound, the glucose production result with conscious rats [3] (central inhibitor infused with circulating lactate infusion) is given as “increase in glucose production”.

As for `NC(=O)C(=O)O` [oxamate, reference compound], the “GP (glucose production)” value in the experiment with conscious rats [2] (ICV oxamate (50 mM) with ICV glucose) is 11.9 ± 1.0 mg/kg/min. Also, in the experiment on conscious rats [2] (ICV oxamate with ICV lactate), the GP (glucose production) is 11.3 ± 0.6 mg/kg/min and the plasma glucose turned out to be 144 ± 1 mg/dL. For the same compound, in the experiment with conscious rats [4], the “hepatic TG-enriched VLDL production” value amounted to 0.056 ± 0.002 mM/min and the “plasma TG levels” value stood at 0.44 ± 0.12 mM.
